Laboratory results published in patent publication US20240109918A1, “HETEROCYCLIC COMPOUNDS AND USES THEREOF” (Kumquat Biosciences Inc., priority 2022, published 2024).
One block for each molecule: values may come before it.

Experiments:
KRASG12D = molecular target: T1, KRASG12D (Homo sapiens, UniProt P01116, G12D); assay: Bio-Biochem-PPI-HTRF Ras-SOS1 interaction assay (KRAS G12D); assay type: biochemical; conditions: 5 nM
T1 construct: made in house; host or cells: E. coli BL21 (DE3)
Method in brief: (§1)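 Inhibition of His-hSOS1 binding to GST-tagged wild-type or G12D K-Ras is read as HTRF ratio (665/620 nm) following incubation of about 10 minutes or longer, and IC50 values are fitted from duplicate six-point titrations.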

KRASwt = molecular target: T2, KRASwt (Homo sapiens, UniProt P01116); assay: Bio-Biochem-PPI-HTRF Ras-SOS1 interaction assay (KRAS wt); assay type: biochemical; conditions: 5 nM
T2 construct: made in house; host or cells: E. coli BL21 (DE3)
Method in brief: as §1

T1 sequence (P01116 1-188 isoform P01116-2 G12D): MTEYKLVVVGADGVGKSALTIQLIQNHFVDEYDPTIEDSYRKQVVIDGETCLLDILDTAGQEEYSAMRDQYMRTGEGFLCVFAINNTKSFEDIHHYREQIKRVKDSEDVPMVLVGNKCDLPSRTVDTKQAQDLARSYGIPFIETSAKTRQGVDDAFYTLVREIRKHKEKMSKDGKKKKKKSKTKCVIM
T2 sequence (P01116 1-188 isoform P01116-2): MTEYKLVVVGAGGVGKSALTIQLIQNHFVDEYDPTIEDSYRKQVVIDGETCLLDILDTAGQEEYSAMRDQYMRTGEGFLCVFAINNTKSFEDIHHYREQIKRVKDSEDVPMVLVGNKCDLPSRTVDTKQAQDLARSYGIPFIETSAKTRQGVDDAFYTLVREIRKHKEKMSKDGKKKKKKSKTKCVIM

SMILES: N#Cc1c(N)sc2c(F)ccc(-c3c(Cl)cc4c(N5CCCCC6(CNC6)C5)nc(OC[C@@]56CCCN5C[C@H](F)C6)nc4c3F)c12 [compound 149, 2-amino-4-(6-chloro-8-fluoro-2-(((2R,7aS)-2-fluorotetrahydro-1H-pyrrolizin-7a(5H)-yl)methoxy)-4-(2,6-diazaspiro[3.6]decan-6-yl)quinazolin-7-yl)-7-fluorobenzo[b]thiophene-3-carbonitrile]
IC50 (KRASG12D): < 5 µM
IC50 (KRASwt): < 5 µM

SMILES: N#Cc1c(N)sc2c(F)ccc(-c3c(Cl)cc4c(N5CCCCC6(CN(C(=O)N7CC(F)C7)C6)C5)nc(OC[C@@]56CCCN5C[C@H](F)C6)nc4c3F)c12 [compound 250, 2-amino-4-(6-chloro-8-fluoro-4-(2-(3-fluoroazetidine-1-carbonyl)-2,6-diazaspiro[3.6]decan-6-yl)-2-(((2R,7aS)-2-fluorotetrahydro-1H-pyrrolizin-7a(5H)-yl)methoxy)quinazolin-7-yl)-7-fluorobenzo[b]thiophene-3-carbonitrile]
IC50 (KRASG12D): < 5 µM
IC50 (KRASwt): < 5 µM

SMILES: N#Cc1c(N)sc2c(F)ccc(-c3c(Cl)cc4c(N5CCCCC6(CN(C(=O)C7CC7)C6)C5)nc(OC[C@@]56CCCN5C[C@H](F)C6)nc4c3F)c12 [compound 201, 2-amino-4-(6-chloro-4-(2-(cyclopropanecarbonyl)-2,6-diazaspiro[3.6]decan-6-yl)-8-fluoro-2-(((2R,7aS)-2-fluorotetrahydro-1H-pyrrolizin-7a(5H)-yl)methoxy)quinazolin-7-yl)-7-fluorobenzo[b]thiophene-3-carbonitrile]
IC50 (KRASG12D): < 5 µM
IC50 (KRASwt): < 5 µM

SMILES: CN(C)CC(=O)N1CC2(CCCN(c3nc(OC[C@@]45CCCN4C[C@H](F)C5)nc4c(F)c(-c5ccc(F)c6sc(N)c(C#N)c56)c(Cl)cc34)C2)C1 [compound 144, 2-amino-4-(6-chloro-4-(2-(dimethylglycyl)-2,6-diazaspiro[3.5]nonan-6-yl)-8-fluoro-2-(((2R,7aS)-2-fluorotetrahydro-1H-pyrrolizin-7a(5H)-yl)methoxy)quinazolin-7-yl)-7-fluorobenzo[b]thiophene-3-carbonitrile]
IC50 (KRASG12D): < 5 µM
IC50 (KRASwt): < 5 µM

SMILES: N#Cc1c(N)sc2c(F)ccc(-c3c(Cl)cc4c(N5CCCCC6(CN(C(=O)C7(CC(F)F)CC7)C6)C5)nc(OC[C@@]56CCCN5C[C@H](F)C6)nc4c3F)c12 [compound 227, 2-amino-4-(6-chloro-4-(2-(1-(2,2-difluoroethyl)cyclopropane-1-carbonyl)-2,6-diazaspiro[3.6]decan-6-yl)-8-fluoro-2-(((2R,7aS)-2-fluorotetrahydro-1H-pyrrolizin-7a(5H)-yl)methoxy)quinazolin-7-yl)-7-fluorobenzo[b]thiophene-3-carbonitrile]
IC50 (KRASG12D): < 5 µM
IC50 (KRASwt): < 5 µM

SMILES: CC1(C(=O)N2CC3(CCCCN(c4nc(OC[C@@]56CCCN5C[C@H](F)C6)nc5c(F)c(-c6ccc(F)c7sc(N)c(C#N)c67)c(Cl)cc45)C3)C2)CC1(F)F (stereo partly drawn) [compound 277, 2-amino-4-(6-chloro-4-(2-(2,2-difluoro-1-methylcyclopropane-1-carbonyl)-2,6-diazaspiro[3.6]decan-6-yl)-8-fluoro-2-(((2R,7aS)-2-fluorotetrahydro-1H-pyrrolizin-7a(5H)-yl)methoxy)quinazolin-7-yl)-7-fluorobenzo[b]thiophene-3-carbonitrile]
IC50 (KRASG12D): < 5 µM
IC50 (KRASwt): < 5 µM

SMILES: CN(C)C/C=C/C(=O)N1CC2(CCCN(c3nc(OC[C@@]45CCCN4C[C@H](F)C5)nc4c(F)c(-c5ccc(F)c6sc(N)c(C#N)c56)c(Cl)cc34)C2)C1 [compound 189, 2-amino-4-(6-chloro-4-(2-((E)-4-(dimethylamino)but-2-enoyl)-2,6-diazaspiro[3.5]nonan-6-yl)-8-fluoro-2-(((2R,7aS)-2-fluorotetrahydro-1H-pyrrolizin-7a(5H)-yl)methoxy)quinazolin-7-yl)-7-fluorobenzo[b]thiophene-3-carbonitrile]
IC50 (KRASG12D): < 5 µM
IC50 (KRASwt): < 5 µM

SMILES: N#Cc1c(N)sc2c(F)ccc(-c3c(Cl)cc4c(N5CCCCC6(CN(C(=O)N7CC(C(F)F)C7)C6)C5)nc(OC[C@@]56CCCN5C[C@H](F)C6)nc4c3F)c12 [compound 196, 2-amino-4-(6-chloro-4-(2-(3-(difluoromethyl)azetidine-1-carbonyl)-2,6-diazaspiro[3.6]decan-6-yl)-8-fluoro-2-(((2R,7aS)-2-fluorotetrahydro-1H-pyrrolizin-7a(5H)-yl)methoxy)quinazolin-7-yl)-7-fluorobenzo[b]thiophene-3-carbonitrile]
IC50 (KRASG12D): < 5 µM
IC50 (KRASwt): < 5 µM

SMILES: C#Cc1c(F)ccc2cc(O)cc(-c3ccc4c(N5CCOC6(CNC6)C5)nc(OC[C@@]56CCCN5C[C@H](F)C6)nc4c3F)c12 [compound 158, 5-ethynyl-6-fluoro-4-(8-fluoro-2-(((2R,7aS)-2-fluorotetrahydro-1H-pyrrolizin-7a(5H)-yl)methoxy)-4-(5-oxa-2,8-diazaspiro[3.5]nonan-8-yl)quinazolin-7-yl)naphthalen-2-ol]
IC50 (KRASG12D): < 5 µM
IC50 (KRASwt): < 5 µM

The next lines start with the values.

IC50 (KRASG12D): < 5 µM
IC50 (KRASwt): < 5 µM
SMILES: CC(=O)N1CC2(CCCCN(c3nc(OC[C@@]45CCCN4C[C@H](F)C5)nc4c(F)c(-c5ccc(F)c6sc(N)c(C#N)c56)c(Cl)cc34)C2)C1 [compound 338, 4-(4-(2-acetyl-2,6-diazaspiro [3.6]decan-6-yl)-6-chloro-8-fluoro-2-(((2R,7aS)-2-fluorotetrahydro-1H-pyrrolizin-7a(5H)-yl)methoxy)quinazolin-7-yl)-2-amino-7-fluorobenzo[b]thiophene-3-carbonitrile]

IC50 (KRASG12D): < 5 µM
IC50 (KRASwt): < 5 µM
SMILES: C#Cc1c(F)ccc2cc(O)cc(-c3ncc4c(N5CCOCC6(CN(C(=O)[C@H]7CC7(F)F)C6)C5)nc(OC[C@@]56CCCN5C[C@H](F)C6)nc4c3F)c12 [compound 316, ((R)-2,2-difluorocyclopropyl) (9-(7-(8-ethynyl-7-fluoro-3-hydroxynaphthalen-1-yl)-8-fluoro-2-(((2R,7aS)-2-fluorotetrahydro-1H-pyrrolizin-7a(5H)-yl)methoxy)pyrido[4,3-d]pyrimidin-4-yl)-6-oxa-2,9-diazaspiro[3.6]decan-2-yl)methanone]

IC50 (KRASG12D): < 5 µM
IC50 (KRASwt): < 5 µM
SMILES: C#Cc1c(F)ccc2cc(O)cc(-c3ncc4c(N5CCCCC6(CN(C(=O)[C@@H]7CC7(F)F)C6)C5)nc(OC[C@@]56CCCN5C[C@H](F)C6)nc4c3F)c12 [compound 334, ((S)-2,2-difluorocyclopropyl) (6-(7-(8-ethynyl-7-fluoro-3-hydroxynaphthalen-1-yl)-8-fluoro-2-(((2R,7aS)-2-fluorotetrahydro-1H-pyrrolizin-7a(5H)-yl)methoxy)pyrido[4,3-d]pyrimidin-4-yl)-2,6-diazaspiro[3.6]decan-2-yl)methanone]

IC50 (KRASG12D): < 5 µM
IC50 (KRASwt): < 5 µM
SMILES: N#Cc1c(N)sc2c(F)ccc(-c3c(Cl)cc4c(N5CCCCC6(CN(C(=O)C7COC7)C6)C5)nc(OC[C@@]56CCCN5C[C@H](F)C6)nc4c3F)c12 [compound 293, 2-amino-4-(6-chloro-8-fluoro-2-(((2R,7aS)-2-fluorotetrahydro-1H-pyrrolizin-7a(5H)-yl)methoxy)-4-(2-(oxetane-3-carbonyl)-2,6-diazaspiro[3.6]decan-6-yl)quinazolin-7-yl)-7-fluorobenzo[b]thiophene-3-carbonitrile]

IC50 (KRASG12D): < 5 µM
IC50 (KRASwt): < 5 µM
SMILES: N#Cc1c(N)sc2c(F)ccc(-c3c(Cl)cc4c(N5CCCCC6(CN(C(=O)C7(C(F)F)COC7)C6)C5)nc(OC[C@@]56CCCN5C[C@H](F)C6)nc4c3F)c12 [compound 340, 2-amino-4-(6-chloro-4-(2-(3-(difluoromethyl)oxetane-3-carbonyl)-2,6-diazaspiro[3.6]decan-6-yl)-8-fluoro-2-(((2R,7aS)-2-fluorotetrahydro-1H-pyrrolizin-7a(5H)-yl)methoxy)quinazolin-7-yl)-7-fluorobenzo[b]thiophene-3-carbonitrile]

IC50 (KRASG12D): < 5 µM
IC50 (KRASwt): < 5 µM
SMILES: N#Cc1c(N)sc2c(F)ccc(-c3c(Cl)cc4c(N5CCCC6(CN(C(=O)N7CC(C#N)C7)C6)C5)nc(OC[C@@]56CCCN5C[C@H](F)C6)nc4c3F)c12 [compound 308, 1-(6-(7-(2-amino-3-cyano-7-fluorobenzo[b]thiophen-4-yl)-6-chloro-8-fluoro-2-(((2R,7aS)-2-fluorotetrahydro-1H-pyrrolizin-7a(5H)-yl)methoxy)quinazolin-4-yl)-2,6-diazaspiro[3.5]nonane-2-carbonyl)azetidine-3-carbonitrile]

IC50 (KRASG12D): < 5 µM
IC50 (KRASwt): < 5 µM
SMILES: N#Cc1c(N)sc2c(F)ccc(-c3c(Cl)cc4c(N5CCCCC6(CN(C(=O)CN7CCOCC7)C6)C5)nc(OC[C@@]56CCCN5C[C@H](F)C6)nc4c3F)c12 [compound 335, 2-amino-4-(6-chloro-8-fluoro-2-(((2R,7aS)-2-fluorotetrahydro-1H-pyrrolizin-7a(5H)-yl)methoxy)-4-(2-(2-morpholinoacetyl)-2,6-diazaspiro[3.6]decan-6-yl)quinazolin-7-yl)-7-fluorobenzo[b]thiophene-3-carbonitrile]

IC50 (KRASG12D): < 5 µM
IC50 (KRASwt): < 5 µM
SMILES: N#Cc1c(N)sc2c(F)ccc(-c3c(Cl)cc4c(N5CCCCC6(CN(C(=O)C7CC78CC8)C6)C5)nc(OC[C@@]56CCCN5C[C@H](F)C6)nc4c3F)c12 (stereo partly drawn) [compound 286, 2-amino-4-(6-chloro-8-fluoro-2-(((2R,7aS)-2-fluorotetrahydro-1H-pyrrolizin-7a(5H)-yl)methoxy)-4-(2-(spiro[2.2]pentane-1-carbonyl)-2,6-diazaspiro[3.6]decan-6-yl)quinazolin-7-yl)-7-fluorobenzo[b]thiophene-3-carbonitrile]
